Where no end group is shown, it is not given here.
Test system: Salmonella enterica serotype Enteritidis
Assay: Spot-on-lawn antimicrobial activity assay
Format: cell-based
Settings: spot-on-lawn on M63 soft agar, 37 °C overnight; dried maturation assay in MeOH (41.7 µM if full conversion, 5 µL; Tyr9 derivatives also 69.5 µM, 8 µL); halo diameters
Description: We next evaluated all lasso peptides and their corresponding branched-cyclic peptides for antimicrobial activity in spot-on-lawn assays against Salmonella enterica serotype Enteritidis.[42] […] Moreover, steric constraints in the tight binding pocket are a limiting factor for Tyr-9 substitutions.
4.3 Antimicrobial activity assay against Salmonella strain
The antimicrobial activity assay of MccJ25-derivatives was performed against the indicative strain Salmonella enterica serotype Enteritidis.
4.3.1 Preparation of M63 agar
For M63 agar plates (20 g agar/L): KH2PO4 (3 g/L), K2HPO4 (7 g/L), (NH4)2SO4 (2 g/L), Casamino acids (1 g/L) were dissolved in 900 mL water. Agar (20 g/L) was added, and the suspension was filled up to 1 L and autoclaved (121 °C for 20 min). […]
The indicative strain is freshly streaked on a LB agar plate and incubated at 37 °C overnight. […] The plates were inspected for bacterial growth and possible halos were measured. […]
Fig. S77: Antimicrobial activity test using spot-on-lawn assays with dried m aturation assay dissolved in 30 µL MeOH: (A) Peptides analyzed after maturation assay. (B) Photos of spot -on-lawn assays and measured halo diameters to evaluate trends in activity. The peptide with three D-amino acids was analyzed on a different date, ther efore, diameter of control C (MccJ25) . […]

| Substance | antimicrobial activity of enzymatically matured lasso peptides (in words) |
| --- | --- |
| 9′: His-12 MccJ25 mutant (His-12, Phe-13, Ile-15), L-His (GGAGHVPEYFVHFGIPISFYG; ends and bridges not checked; also: lasso peptide: isopeptide ring closure, ring positions not given here; UniProt Q9X2V7 38-58, looked up, variant G12H I13F T15I) | slightly stronger activity |
| microcin J25 (GGAGHVPEYFVGIGTPISFYG; lactam (positions not given here); also: lasso peptide: isopeptide ring closure, ring positions not given here; UniProt Q9X2V7 38-58, looked up) [1′, native lasso peptide (21 AA), matured from WT-McjA, reference compound] | activities were only observed |
